Publication PMC10994559 (PLOS Neglected Tropical Diseases, 2024)
Like-named read-outs stand apart in the source and are kept apart here.

Columns and labels:
T. brucei brucei BSF = assay: T. brucei BSF viability, resazurin reduction; assay type: cell-based, Trypanosoma brucei brucei; settings: Trypanosoma brucei; for viability at 2.5 µM: read-out: viability, T.brucei (2.5 µM); for viability at 25 µM: read-out: viability, T.brucei (25 µM); for EC50: read-out: EC50 T. brucei BSF, dose response, triplicate, ± SD (Table 2) / ± SE (S3 Table)
Method: T. brucei brucei (strain 427 Lister) blood stream form (BSF) parasites were passaged in complete HMI-9 media supplemented with 10% FCS, Pen-Strep (0.1%) and 2-mercaptoethanol (0.014 v/v) and kept in a 37° C CO2 incubator in filter-cap flasks.
(§1) Viability of T. brucei brucei BSF and T. cruzi trypomastigotes was assayed with fluorescence resazurin reduction assay, essentially as described above. […] Next, selected compounds were tested at 2.5 μM concentration, and promising compounds subjected to 18 concentrations dose response analyses. AN3057 and AmB were used as a control drug in T. brucei and T. cruzi, respectively.

T. cruzi trypomastigotes = assay: T. cruzi viability, resazurin reduction; assay type: cell-based, Trypanosoma cruzi; settings: Trypanosoma cruzi; for viability at 2.5 µM: read-out: viability, T.cruzi (2.5 µM); for viability at 25 µM: read-out: viability, T.cruzi (25 µM)
Method: T. cruzi (Y strain) trypomastigotes were passaged in liver infusion broth media supplemented with tryptose, NaCl, Na2HPO4, KCl, glucose, hemin, Pen-Strep (1%), 10% FCS (pH: 7.2) and kept at 28°C.
as §1

[1] = tested on: intracellular L. infantum amastigotes; assay: Parasite rescue assay (intramacrophage, J774 infected with L. infantum); assay type: cell-based, Leishmania infantum; settings: J774, 25 µM; intracellular amastigote; read-out: viability, intracellular L. major amastigote (25 µM)
[2] = Cytotoxicity assay J774, resazurin reduction; assay type: cell-based, murine; settings: mouse, J774 macrophage cells; for viability at 72 h, 2.5 µM: read-out: viability, J774 (2.5 µM); for viability at 72 h, 25 µM: read-out: viability, J774 (25 µM)
Method: Mammalian cell lines (J774 and HepG2) were passaged in RPMI media supplemented with MEM, Pen-Strep (1%) and 10% FCS. Cultures were kept at 37°C incubator with 5% CO2 in filter-cap flasks.
Murine macrophage cells (J774) and human hepatocyte carcinoma HepG2 cells were seeded at 0.5x10^5 cell/well in 384 well plates in triplicate, exposed to serial dilution of compounds, dispensed using an Echo 650 acoustic dispenser (Labcyte). After incubation for 72 h at 37°C, 5% CO2, cell viability was determined using fluorescence resazurin reduction assay (λEx: 550 nm; λEm: 590 nm).

L. major promastigotes = assay: L. major promastigote viability, resazurin reduction; assay type: cell-based, Leishmania major; settings: Leishmania major, read-out: viability, L.major promastigote (25 µM)
Source text: (§2) The infectivity of the parasites was boosted by passaging in Balb/c mice and culturing the infected lymph nodes after six weeks. L. infantum (MHOM / BR / 76 / M4192) parasite was passaged in the same media formulation with 0.5% urine.

[3] = tested on: L. major axenic amastigotes; assay: L. major axenic amastigote viability, resazurin reduction; settings: Leishmania major, read-out: viability, L.major amastigote (25 µM)
Method: L. major LV561(MHOM/IL/67/LRC-L137 JERICHO II) amastigotes were passaged in Grace insect medium supplemented with NaHCO3, 0.1% amikin and 20% of FCS (pH: 5.4) and kept at 33°C.
Exponential growth phase promastigotes of L. major or L. infantum and axenic amastigotes (L. major) were harvested and seeded in 384 well plates (white, non-transparent, tissue culture treated, flat bottom; Corning) (0.5x10^5 cells per well). Compounds were pre-dispensed into the plate with an Echo 650 acoustic dispenser (Beckman Coulter). After 72h incubation, resazurin was added (1:10 v/v) from a […] stock in PBS, followed by incubation for six hours. Then, fluorescence intensity was measured using a microplate reader (Synergy H1, BioTek) with excitation filter: 550 nm and emission filter: 590 nm. Efficient compounds were selected for the next round of viability assay with 2.5 μM concentrations of the compounds. […] All experiments were performed with AmB as a positive control drug in parallel.
Axenic amastigotes, the relevant form that persists in the infected host, were generated in the lab through established procedures, employing harsh pH (pH 5) and high temperature (33°C) conditions.

E. histolytica = E. histolytica viability, ATP luminescence (Cell titer glo); assay type: cell-based, Entamoeba histolytica; settings: Entamoeba histolytica; for EC50: 48 h, 9 to 16-point dose response; for viability at 2.5 µM: read-out: viability, E.histolytica (2.5 µM); for viability at 25 µM: read-out: viability, E.histolytica (25 µM)
Method: Entamoeba histolytica (strain B2-5) was passaged in TY-1 medium (Trypticase peptone BBL, Yeast extract BBL, glucose, NaCl, K2HPO4, KH2PO4, cysteine, ascorbic acid, ammonium iron citrate, adult bovine serum, Diamond tween 80, penicillin G, amikacin (pH:6.8)) and kept in 37°C incubator in completely filled tubes with closed lid.
Viability of E. histolytica was assayed via a luminescence assay based on ATP quantification in the live cells. Briefly, 2.5x10^4 cell/ml were exposed to 25 μM of compounds in 96 well plates (non-transparent, tissue culture treated, flat bottom; SPL Life Sciences) in triplicate for 48h. Plates were incubated in sealed anaerobic bags (Oxoid AGS) together with an Anaerogen compact bag (Thermo Scientific) and anaerobic indicator (Thermo Scientific) at 37°C. Then, Cell titer glo reagent (Promega) was added to the reaction (1:5) according to manufacturers’ instruction. After 15 min of orbital shaking, followed by 10 min incubation at RT, ATP-bioluminescence was quantified at RT using a Synergy H1 plate reader (Synergy H1, BioTek). Metronidazole was included as control drug in all the assays for E. histolytica. Test compounds indicating significant growth reduction in the primary screen were subjected to potency determination. These secondary screens were essentially carried out as detailed above, but with a 9 to 16-point concentration range of the test compounds spanning 0.01–100 μM.

[4] = tested on: L. infantum promastigotes; assay: L. infantum promastigote viability, resazurin reduction; assay type: cell-based, Leishmania infantum; settings: Leishmania infantum, sheet LTC_compound_viability, value ± spread; for viability at 2.5 µM: read-out: viability, L. infantum promastigote (2.5 µM); for viability at 25 µM: read-out: viability, L. infantum promastigote (25 µM)
Source text: as §2

Row | Compound | viability at 2.5 µM (T. brucei brucei BSF) [%] | viability at 25 µM (T. brucei brucei BSF) [%] | EC50 (T. brucei brucei BSF) [µM] | viability at 2.5 µM (T. cruzi trypomastigotes) [%] | viability at 25 µM (T. cruzi trypomastigotes) [%] | viability at 25 µM [1] [%] | viability at 72 h, 2.5 µM [2] [%] | viability at 72 h, 25 µM [2] [%] | viability at 25 µM (L. major promastigotes; 72 h) [%] | viability at 25 µM (L. major promastigotes; 25 µM) [%] | viability at 25 µM [3] [%] | EC50 (E. histolytica) [µM] | viability at 2.5 µM (E. histolytica) [%] | viability at 25 µM (E. histolytica) [%] | viability at 2.5 µM [4] [%] | viability at 25 µM [4] [%]
1 | O=C(Cc1ccc2ccccc2c1)NC(Cc1ccccc1)C(O)CN1CCN(Cc2ccccc2)CC1 (centres unmarked) [LTC-6] | 91 ± 5.89 | 2.92 ± 1.26 | 5.6 ± 1.7 | 56.4 ± 4.53 | 18.4 ± 1.57 | 47.3 ± 9.73 | 106 ± 6.66 | 2.99 ± 2.56 | 66.2 ± 3.33 | 0.62 ± 0.39 | 73.5 ± 1.98 | 4.9 ± 1.8 | 86.8 ± 20.5 | 2.71 ± 1.39 | 100.6 ± 0.6 | 0.37 ± 0.06
2 | O=C(Cc1cccc(C(F)(F)F)c1)NC(Cc1ccccc1)C(O)CN1CCN(Cc2ccccc2)CC1 (centres unmarked) [LTC-8] | 98.5 ± 6.21 | 3.15 ± 1.45 | 7.3 ± 1.7 | 59.3 ± 1.4 | 33.8 ± 0.8 | 67.2 ± 5.73 | 102 ± 8.6 | 4.16 ± 2.39 | 67.5 ± 1.55 | 0.28 ± 0.16 | 75.1 ± 2.03 | 4.4 ± 1.7 | 60.3 ± 6.76 | 0.54 ± 0.81 | 101 ± 1.24 | 0.96 ± 0.46
